Structures can show the parent of a compound that is named as a salt.
| Compound | melting point |
| --- | --- |
| CN1CCC(Sc2ccc3[nH]c(=O)n(C)c(=O)c3c2)CC1 [Example 21, 3-Methyl-6-[(1-methyl-4-piperidinyl)sulfanyl]-2,4(1H,3H)-quinazolinedione] | 200.8 to 202.6 °C |
| CN1CCC(Sc2ccc(N)cc2)CC1 (as salt: hydrochloride) [Example 5, 4-(1-methylpiperidin-4-yl)thiophenylamine] | 96 to 98 °C |
| CN1CCC(Sc2cc3c(cc2Cl)[nH]c(=O)n3C)CC1 [Example 20, 5-Chloro-1-methyl-6-[(1-methyl-4-piperidinyl)sulfanyl]-1,3-dihydro-2H-benzimidazol-2-one] | 210.2 to 211.9 °C |
| CN1CCC(Sc2ccc3[nH]c(=O)n(C)c3c2)CC1 [Example 18, 1-Methyl-6-[(1-methyl-4-piperidinyl)sulfanyl]-1,3-dihydro-2H-benzimidazol-2-one] | 196.4 to 197.6 °C |
| CN1CCC(Sc2ccc3[nH]c(=O)[nH]c3c2)CC1 [Example 16, 5-[(1-methyl-4-piperidinyl)sulfanyl]-1,3-dihydro-2H-benzimidazol-2-one] | 213.8 to 214.7 °C |
| CN1CCC(Sc2ccc3[nH]c(=O)[nH]c(=O)c3c2)CC1 [Example 17, 6-[(1-methyl-4-piperidinyl)sulfanyl]-2,4(1H,3H)-quinazolinedione] | > 260 °C |
| CC(=O)Nc1ccc(SC2CCN(C)CC2)cc1 (as salt: salt) [Example 7, N-{4-[(1-methylpiperidin-4-yl)thio]phenyl}acetamide] | 199 to 201 °C |

Source: patent US7408067B2, “Aza-cyclic compounds as modulators of acetylcholine receptors” (Merck + Co., Inc., priority 2002, dated 2008)
